Here are results for four molecules from US20150072995A1, “TREATMENT OF MALE SEXUAL DYSFUNCTION” (Ixchelsis Limited, priority 2002, published 2015).

Where two headings read alike, the source gives them in different places.

In series [1] the test system is male animals. The conditions noted are these: cited from earlier work.
Series [2] concerns rats. The settings on record: cited from earlier work.
The subject of series [3] is rats, rabbits and monkeys. The settings on record: cited from earlier work.
The subject of series [4] is human volunteers. The conditions noted are these: cited from earlier work.
Series [5] is described as follows: CNS penetration. The settings on record: in vivo.
The target in series [6] is T1, Human cloned vasopressin V1a receptor in CHO cells (Homo sapiens, UniProt P37288).
T1 construct: expressed in transfected cells; host or cells: CHO cells (membrane preparation)
T1 sequence (P37288 whole entry): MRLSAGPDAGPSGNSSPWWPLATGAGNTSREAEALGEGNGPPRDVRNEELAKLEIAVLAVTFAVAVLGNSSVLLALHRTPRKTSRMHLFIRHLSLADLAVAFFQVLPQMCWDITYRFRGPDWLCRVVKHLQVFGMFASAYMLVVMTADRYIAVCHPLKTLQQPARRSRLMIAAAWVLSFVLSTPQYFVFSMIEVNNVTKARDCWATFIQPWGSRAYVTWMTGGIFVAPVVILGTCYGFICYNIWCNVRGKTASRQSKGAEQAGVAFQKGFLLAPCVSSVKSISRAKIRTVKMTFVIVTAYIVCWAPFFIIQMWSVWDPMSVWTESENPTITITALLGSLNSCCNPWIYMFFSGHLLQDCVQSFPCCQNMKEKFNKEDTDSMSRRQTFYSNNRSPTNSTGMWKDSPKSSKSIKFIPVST
Kind of series: Vasopressin V1a receptor binding assay (3H-AVP, filtration). The settings on record: printed as [6.3 nM OT: 148 nM V1a]; read-out: V1a (vasopressin V1a receptor affinity). As to the method:
B. Vasopressin VIA Receptor Binding Assay
iii) Membrane Preparation • Frozen cell pellets are retrieved from the freezer and thawed gently on ice. • 3 ml of membrane prep buffer per ml of original packed cell volume is • added and the suspension homogenised with a polytron for several bursts • of 5 seconds on ice until well dispersed before centrifuging at 1000 rpm for 10 mins • The supernatant is removed and stored on ice. A further 3 ml of membrane prep buffer per ml of original packed cell volume is added to the pellet, homogenised on ice and then centrifuged at 1000 rpm for 10 mins • The supernatant is removed, added to the previously removed volume of supernatant and then centrifuged at 25,000×g and 4° C. for 30 mins • The 25,000×g pellet is re-suspended by homogenisation in 1 ml of freezing buffer per ml of original packed cell volume and the protein concentration determined […]
Specific binding is calculated as follows: […]

The target of series [7] is T2, oxytocin receptor (Homo sapiens, UniProt P30559).
T2 sequence (P30559 1-389): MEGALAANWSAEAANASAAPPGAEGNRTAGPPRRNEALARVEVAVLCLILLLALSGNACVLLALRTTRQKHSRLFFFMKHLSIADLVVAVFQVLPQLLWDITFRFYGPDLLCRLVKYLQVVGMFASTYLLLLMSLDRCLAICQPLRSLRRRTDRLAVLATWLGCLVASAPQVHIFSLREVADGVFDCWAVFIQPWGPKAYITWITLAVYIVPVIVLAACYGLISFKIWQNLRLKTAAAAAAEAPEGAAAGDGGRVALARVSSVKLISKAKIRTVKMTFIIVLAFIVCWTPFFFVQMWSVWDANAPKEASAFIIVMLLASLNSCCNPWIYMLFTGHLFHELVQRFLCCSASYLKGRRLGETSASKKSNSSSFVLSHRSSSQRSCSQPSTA
Kind of series: biochemical.
Protocol: • a) HTA stock compounds at 4 mM in 100% DMSO • b) Dilute compounds to 200 μM in dH2O. • c) Further dilute compounds to 100 μM in 100 mM Tris-HCl, pH 7.8, 20 mM MgCl2. […]
• Cell pellets are retrieved from the freezer, thawed on ice and resuspended in 3 ml of membrane prep buffer per ml packed cell volume. • The suspension is then homogenised using a mechanical homogeniser for several bursts of 5 secs on ice before centrifuging at 25,000×g for 30 mins. • After resuspending the pellet in 1 ml of freezing buffer per 1 ml of the original packed cell volume the suspension is briefly homogenised to remove small lumps. Protein concentrations are then measured and the membrane suspension is finally frozen in aliquots at a minimum of 5 mg/ml at −80° C.
• Membranes are thawed on ice before diluting to 1 mg/ml in assay buffer. […] Following a 4 hour incubation at room temperature, the plates are counted using the TopCount NXT for 30 s/well.
For the test compounds, the amount of ligand bound to the receptor is expressed as follows: […]

Series [8] has as its system sexually-experienced rats. Kind of series: Male sexual behaviour model (copulatory behaviour with receptive female). It is filed as in vivo, rat. As to the method:
For all the sexual behaviour tests, the male rats were placed in an observation arena (50-60 cm diameter), starting 5 hours into the dark cycle and observed under red illumination. Three to four minutes after placing the male in the arena, a receptive female (ovariectomised, oestradiol benzoate/progesterone injection 48 hour before behavioural study) was introduced into the arena and the following parameters noted: • i) ejaculatory latency (EJL; time taken from addition of receptive female into the arena to ejaculation); • ii) copulatory efficiency (CE; ejaculatory latency/the number of intromissions to ejaculation, i.e. the number of seconds between intromissions); • iii) intromission frequency (IF; the number of intromissions to ejaculation); • iv) mount frequency (MF; the number of mounts to ejaculation); • v) post ejaculatory interval (PEI; the time taken from ejaculation to the commencement of copulatory behaviour).

Series [9] in a line: Free plasma concentration in rats. The series is classed as in vivo, rat. The settings on record: for concentration at 30 minutes: rat, plasma, preliminary pharmacokinetic studies.
The test system of series [10] is anaesthetised rats. The experiment in a line: Penile erection and p-chloroamphetamine (PCA)-induced ejaculation test in anaesthetised rats. The series is classed as in vivo, rat.
Series [11] deals with anaesthetised rats. The experiment in a line: Splanchnic nerve-stimulated seminal vesicle pressure in anaesthetised rats. The series is classed as in vivo, rat. An excerpt:
Seminal vesicle contraction is essential for emission and the seminal fluid delivered into the prostatic urethra is thought to trigger ejaculation. Oxytocin has direct contractile effects on mammalian seminal vesicles and may additionally have a neuromodulator role influencing sympathetic innervation during ejaculation. In this study seminal vesicle contraction was reduced by 41% after a 1 mgkg^−1 bolus injection (see FIG. 2 below).

For series [12], the system named is rat. The settings on record: 100 ng/rat icv; cited from earlier work.
Series [13] concerns rat. The settings on record: cited from earlier work.
Series [14] deals with experienced male rats. The settings on record: ICV injection, Argiolas et al 1988; cited from earlier work.
Setting [15] is: infusion into the 3rd ventricle.

For the molecule `CC[C@H](C)[C@@H]1NC(=O)[C@H](Cc2ccc(O)cc2)NC(=O)[C@@H](N)CSSC[C@@H](C(=O)N2CCC[C@H]2C(=O)N[C@@H](CC(C)C)C(=O)NCC(N)=O)NC(=O)[C@H](CC(N)=O)NC(=O)[C@H](CCC(N)=O)NC1=O` [oxytocin], in [1] (injected either centrally or peripherally), the “ejaculation latency and post-ejaculation interval” value is “shortens”. The penile erections result in series [1] (injected into specific areas of the brain (periventricular nucleus of the hypothalamus)) is “facilitates”. For the same molecule, in series [2] (setting [15]), the ejaculatory latency entry is “no effect”; the “latencies to the first mount and intromission” value is listed as “increased”; the “post ejaculatory refractory periods” value is on record as “lengthened”. For the same molecule, in series [2] (intravenous infusion), the ejaculatory latency entry is reported as “no effect” and the “number of intromissions made before ejaculation” value was “dose dependently reduced”. In addition, in [3] (central administration), the “latency to achieve ejaculation” value is on record as “reduce” and the post-ejaculatory interval entry is recorded as “shorten”. In addition, the “induction of penile erection” value in [3] (rats, rabbits and monkeys) is reported as “one of the most potent agents to induce penile erection”.

Regarding `C=CCN1CC[C@]23c4c5ccc(O)c4O[C@H]2C(=O)CC[C@@]3(O)[C@H]1C5` [naloxone], in series [4], the effect on ejaculation entry is on record as “no effect” and the “serum oxytocin pulse typically observed at ejaculation” value is recorded as “eliminated”.

Turning to `Cc1ccccc1N1CCN(S(=O)(=O)CC23CCC(C[C@@H]2NC(=O)[C@@H](N)CCS(C)(=O)=O)C3(C)C)CC1` (stereo partly drawn) [L-368,899], the CNS penetration entry in series [5] is “very poor”. For the same molecule, the Ki in series [6] is 148 nM; in [7], 6.3 nM. Moreover, the “effect on copulatory efficiency” value in series [8] (50 ng/rat icv) was “no significant effects”; in series [8] (any of the doses tested, 0.05-10 mgkg^−1 sc), “no effects”. Further, in series [8] (doses up to 10 mgkg^−1 sc), the “effect on copulatory behaviour” value is recorded as “no effect”. For the same molecule, in [9] (after a 1.0 mgkg^−1 iv injection, based on literature PK and protein plasma binding), the free plasma concentration entry is recorded as “approximately 60 nM”. The “free plasma concentration at which ejaculation was delayed 140%” value in [9] (anaesthetised rats, sc) was found to be 5.4 ± 1.5 nM. In addition, the concentration at 30 minutes in series [9] (30 minutes after 1 mgkg^−1 sc) is 4.5 nM; in series [9] (30 minutes after 10 mgkg^−1 sc) it was 40 nM. In addition, the entries for the “PCA-induced erections resulting in penile cups” value in series [10] (0.1 mg/kg) and in series [10] (1.0 mg/kg sc) were 98% and 95%, respectively. The figures for the “PCA-induced erections resulting in penile flares” value in series [10] (0.1 mg/kg) and in series [10] (1.0 mg/kg sc) were 88% and 61%, respectively. Moreover, the “Ejaculation delayed (near maximal effect)” value in series [10] (PCA-induced ejaculation, at free plasma concentrations 5.4±1.5 nM) turned out to be 140%. Also, the “delay of PCA-induced ejaculation” value in [10] (anaesthetised rats, 0.1-10 mgkg^−1 sc) was “significantly delayed”. The “splanchnic nerve-stimulated increases in seminal vesicle pressure” value in [11] (1-3 mgkg^−1 iv) was “significantly reduced”. The “reduction of seminal vesicle contraction” value in [11] (after a 1 mgkg^−1 bolus injection) is on record as 41%.

As for d(CH2)5Tyr(Me)-Orn^8-vasotocin, the drug-induced erections entry in series [12] is reported as “abolished”. Also, in series [8] (50 ng/rat icv), the copulatory behaviour result is listed as “abolished”. Besides, the “effect on ejaculatory latency” value in series [8] (doses up to 25 ng/rat icv, previous studies) is listed as “no effect”. The “number of non-contact erections” value in series [13] (100 ng/rat icv) was “reduces”. Moreover, the non-contact penile erections result in series [13] (Melis et al 1999, dose not given) is given as “significantly reduces”. Besides, in series [14], the ejaculation entry is given as “abolishment”, the penile erection result is reported as “prevent penile erection” and the sexual performance entry is on record as “impair”.
